Test results from patent US11753407B2, “Compounds for treating spinal muscular atrophy” (PTC Therapeutics, Inc., priority 2012, dated 2023).

Tested on: SMN2 mRNA in GM03813 SMA patient cells
Experiment: Endogenous SMN2 mRNA RT-qPCR splicing assay in cultured cells
Type: cell-based, human
Conditions: Type 1 SMA patient fibroblasts, increasing concentrations, 24 hr, versus vehicle (FIG. 4)
Procedure: The reverse transcription-quantitative PCR-based (RT-qPCR) assay is used to quantify the levels of the full length and Δ7 SMN2 mRNA in primary cells and cell lines containing the SMN2 gene treated with a test compound.
Protocol. GM03813 SMA patient cells (5,000 cells/well) are seeded in 200 μL of cell culture medium (DMEM plus 10% FBS) in 96-well flat-bottom plates and the plate is immediately swirled to ensure proper dispersal of cells, forming an even monolayer of cells. Cells are allowed to attach for at least 4-6 hrs. Test compounds are serially diluted 3.16-fold in 100% DMSO to generate a 7-point concentration curve. A solution of test compound (1 μL, 200× in DMSO) is added to each test well and 1 μL DMSO is added to each control well. The plate is incubated for 24 hrs in a cell culture incubator (37° C., 5% CO2, 100% relative humidity). The cells are then lysed in Cells-To-Ct lysis buffer and the lysate is stored at −80° C.
SMN2-specific spliced products and GAPDH mRNA are identified using the following primers and probes in Table 5. Primer SMN FL Forward B (SEQ ID NO. 7) hybridizes to a nucleotide sequence in exon 7 (nucleotide 32 to nucleotide 54) and exon 8 (nucleotide 1 to nucleotide 4), primer SMN Δ7 Forward B (SEQ ID NO. 8) hybridizes to a nucleotide sequence in exon 6 (nucleotide 87 to nucleotide 111) and exon 8 (nucleotide 1 to nucleotide 3), primer SMN Reverse B (SEQ ID NO. 9) hybridizes to a nucleotide sequence in exon 8 (nucleotide 39 to nucleotide 62), probe SMN Probe B (SEQ ID NO. 10) hybridizes to a nucleotide sequence in exon 8 (nucleotide 7 to nucleotide 36). These primers and probes hybridize to nucleotide sequences common to human SMN1 and SMN2 mRNA. Since the SMA patient cells used in Example 3 contain only the SMN2 gene, RT-qPCR can quantify only SMN2 full-length and Δ7 mRNA.
The SMN forward and reverse primers are used at final concentrations of 0.4 μM. The SMN probe is used at a final concentration of 0.15 μM. GAPDH primers are used at final concentrations of 0.1 μM and the probe at 0.075 μM. […]
The increase of SMN2 FL and decrease in SMN2 Δ7 mRNA relative to those in cells treated with vehicle control are determined from real-time PCR data using a modified ΔΔCt method (as described in Livak and Schmittgen, Methods, 2001, 25:402-8). The amplification efficiency (E) is calculated from the slope of the amplification curve for SMN2 FL, SMN2 Δ7, and GAPDH individually. The abundances of SMN2 FL, SMN2 Δ7, and GAPDH are then calculated as (1+E)^−Ct, where Ct is the threshold value for each amplicon. […]

Structure (SMILES)	SMN2 FL mRNA	SMN2 Δ7 mRNA
COc1ccc(-c2cc(=O)n3cc(N4CCNCC4)ccc3n2)cc1OC [Cpd 6, 2-(3,4-dimethoxyphenyl)-7-(piperazin-1-yl)-4H-pyrido[1,2-a]pyrimidin-4-one]	progressively more SMN2 FL mRNA	less SMN2 Δ7 mRNA
Cc1cn2nc(-c3cc(=O)n4cc(N5CCN(C)CC5)ccc4n3)cc2c(C)n1 [Cpd 170, 2-(4,6-dimethylpyrazolo[1,5-a]pyrazin-2-yl)-7-(4-methylpiperazin-1-yl)-4H-pyrido[1,2-a]pyrimidin-4-one]	progressively more SMN2 FL mRNA	less SMN2 Δ7 mRNA
